Measurements from patent publication US10633389B2, “CARM1 inhibitors and uses thereof” (Epizyme, Inc., priority 2013, dated 2020).

Tests used:
[1] = biological target: human CARM1 (PRMT4) (Homo sapiens (Human), UniProt Q86X55); test: CARM1 enzyme assay on peptide substrate (3H-SAM Flashplate); details: Biochemical potencies, read-out: Biochem IC50
Description: S-adenosylmethionine (SAM), S-adenosylhomocysteine (SAH), bicine, Tween20, dimethylsulfoxide (DMSO), bovine skin gelatin (BSG), sodium butyrate and Tris(2-carboxyethyl)phosphine hydrochloride solution (TCEP) were purchased from Sigma-Aldrich at the highest level of purity possible. ^3H-SAM was purchase from American Radiolabeled Chemicals with a specific activity of 80 Ci/mmol. 384-well streptavidin Flashplates were purchased from PerkinElmer.
Peptide representative of human histone H3 residues 16-30 was synthesized with an N-terminal linker-affinity tag motif and a C-terminal amide cap by 21st Century Biochemicals. […] The sequence was Biot-Ahx-[…]-amide and contained a monomethylated arginine at position 26 (SEQ ID NO.:1).
The gene sequence encoding isoform 1 containing a deletion of amino acids 539-561 was amplified subsequently and subcloned into pFastBacMam (Viva Biotech).
Recombinant baculovirus were generated according to Bac-to-Bac kit instructions (Life Technologies). Protein over-expression was accomplished by infecting exponentially growing HEK 293F cell culture at 1.3×10^6 cell/ml with virus (MOI=10) in the presence of 8 mM sodium butyrate. Infections were carried out at 37° C. for 48 hours, harvested by centrifugation, and stored at −80° C. for purification.
Expressed full-length human Flag- and His-tagged CARM1 protein was purified from cell paste by anti-flag M2 affinity chromatography with resin equilibrated with buffer containing 20 mM Tris, 150 mM NaC, 5% glycerol, pH 7.8. Column was washed with 500 mM NaCl in buffer A and Flag-CARM1-His was eluted with 200 ug/ml FLAG peptide in buffer A. Pooled fractions were dialyzed in 20 mM Tris, 150 mM NaCl, 5% glycerol and 1 mM DTT, pH 7.8.
The assays were all performed in a buffer consisting of 20 mM Bicine (pH=7.6), 1 mM TCEP, 0.005% BSG, and 0.002% Tween 20, prepared on the day of use. Compounds in 100% DMSO (1 ul) were spotted into a polypropylene 384-well V-bottom plates (Greiner) using a Platemate Plus outfitted with a 384-channel head (Thermo Scientific). DMSO (1 ul) was added to Columns 11, 12, 23, 24, rows A-H for the maximum signal control and 1 ul of SAH, a known product and inhibitor of CARM1, was added to columns 11, 12, 23, 24, rows I-P for the minimum signal control. A cocktail (40 ul) containing the CARM1 enzyme was added by Multidrop Combi (Thermo-Fisher). The compounds were allowed to incubate with CARM1 for 30 min at room temperature, then a cocktail (10 ul) containing ^3H-SAM and peptide was added to initiate the reaction (final volume=51 ul). The final concentrations of the components were as follows: CARM1 was 0.25 nM, ^3H-SAM was 30 nM, peptide was 250 nM, SAH in the minimum signal control wells was 1 mM, and the DMSO concentration was 2%. The assays were stopped by the addition of non-radiolabeled SAM (10 ul) to a final concentration of 300 uM, which dilutes the ^3H-SAM to a level where its incorporation into the peptide substrate is no longer detectable. 50 ul of the reaction in the 384-well polypropylene plate was then transferred to a 384-well Flashplate and the biotinylated peptides were allowed to bind to the streptavidin surface for at least 1 hour before being washed once with 0.1% Tween20 in a Biotek ELx405 plate washer. The plates were then read in a PerkinElmer TopCount plate reader to measure the quantity of ^3H-labeled peptide bound to the Flashplate surface, measured as disintegrations per minute (dpm) or alternatively, referred to as counts per minute (cpm).
The Hill Coefficient normally allowed to float but may also be fixed at 1 in a 3-parameter fit.

[2] = system: asymmetric di-methyl PABP1 in RKO cells; test: RKO methylation assay, In Cell Western (ICW) for asymmetric di-methyl PABP1; format: cell-based; details: Homo sapiens, RKO, Cellular potencies, ICW PABP1me2a
Procedure, shortened: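 RKO cells treated with compound for 48 h at 37 °C, then fixed, permeabilized and immunostained for asymmetric di-methyl PABP1, with DRAQ5 as DNA stain. Infrared 700/800 nm signal ratio normalized to DMSO and 20 μM reference-compound controls; IC50 from triplicate wells.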

Sequence of human CARM1 (PRMT4) (Q86X55 other isoform, or with tags, fused parts or gaps isoform Q86X55-1): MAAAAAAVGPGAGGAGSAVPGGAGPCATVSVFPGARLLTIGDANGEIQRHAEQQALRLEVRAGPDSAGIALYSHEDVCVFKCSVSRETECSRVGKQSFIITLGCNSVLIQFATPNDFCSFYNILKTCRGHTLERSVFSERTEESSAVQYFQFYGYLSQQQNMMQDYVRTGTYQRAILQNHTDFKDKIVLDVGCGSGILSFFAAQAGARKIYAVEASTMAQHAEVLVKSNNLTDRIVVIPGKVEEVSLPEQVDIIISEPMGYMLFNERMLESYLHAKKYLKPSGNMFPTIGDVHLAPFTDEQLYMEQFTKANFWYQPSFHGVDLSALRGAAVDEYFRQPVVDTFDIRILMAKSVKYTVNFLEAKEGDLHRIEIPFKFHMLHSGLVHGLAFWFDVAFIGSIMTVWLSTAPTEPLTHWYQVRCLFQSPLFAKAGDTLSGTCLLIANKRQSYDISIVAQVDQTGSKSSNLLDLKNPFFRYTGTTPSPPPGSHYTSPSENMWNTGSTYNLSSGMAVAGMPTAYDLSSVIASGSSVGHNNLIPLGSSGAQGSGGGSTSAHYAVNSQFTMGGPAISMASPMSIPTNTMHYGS

IC50 [1] [µM] | IC50 [2] [µM] | Structure (SMILES)
0.1 to 1 | ≥ 20 | CNC[C@@H](O)COc1cccc(-c2nc(NCC3CCOCC3)cc(-c3cn(S(C)(=O)=O)c4ncncc34)n2)c1 [Example 686-1a]
0.1 to 1 | 10 to 20 | CNCC(O)COc1cccc(-c2nc(N[C@@H]3CCOC3)c(C)c(-c3c(C)ncnc3C)n2)c1 (stereo partly shown) [Example 460-1a]
1 to 3 | ≥ 20 | CNCC(O)COc1cccc(-c2nc(NCCCN3CCCC3=O)cc(-c3cnn(CC(C)C)c3)n2)c1 (stereo not shown) [Example 635-1a]
0.1 to 1 | 10 to 20 | CNCC(O)COc1cccc(-c2nc(N3CCN(C(=O)OC)CC3)cc(N(C)C3CCOCC3)n2)c1 (stereo not shown) [Example 585-1a]
0.1 to 1 | 10 to 20 | CNCC(O)COc1cccc(-c2nc(N3CCOCC3)cc(N(C3CC3)[C@@H]3CCOC3)n2)c1 (stereo partly shown) [Example 360-1a]
0.1 to 1 | 5 to 10 | CNCC(O)COc1cccc(-c2nc(NC3CCOC3)c(C)c(N3CCC4(CCCO4)CC3)n2)c1 (stereo not shown) [Example 420-1a]
0.1 to 1 | 10 to 20 | CNCC(O)COc1cccc(-c2nccc(-c3c(C)noc3C)n2)c1 (stereo not shown) [Example 2-1a]
0.1 to 1 | 10 to 20 | CNCC(O)COc1cccc(-c2nc(N3CCC(O)(CCO)CC3)cc(N(C)C3CCOCC3)n2)c1 (stereo not shown) [Example 591-1a]
0.1 to 1 | 10 to 20 | CNCC(O)COc1cccc(-c2nc(N[C@@H]3CCOC3)c(C)c(N3CCn4c(nnc4C(F)(F)F)C3)n2)c1 (stereo partly shown) [Example 365-1a]
0.1 to 1 | 10 to 20 | CNCC(O)COc1cccc(-c2nc(NCC3CCOCC3)cc(N(C)C3CCOCC3)n2)c1 (stereo not shown) [Example 540-1a]
0.1 to 1 | 10 to 20 | CNCC(O)COc1cccc(-c2nc(N[C@@H]3CCOC3)c(C)c(N3CCn4cnnc4C3)n2)c1 (stereo partly shown) [Example 418-1a]
3 to 10 | 10 to 20 | CNCC(O)COc1cccc(-c2nc(NC3(C(=O)NC)CCOC3)c(C)c(-c3c(C)noc3C)n2)c1 (stereo not shown) [Example 113-1a]
0.1 to 1 | 10 to 20 | CNCC(O)COc1cccc(-c2nc(N[C@H]3CCOC3)c(C)c(C3CCOCC3)n2)c1 (stereo partly shown) [Example 347-1a]
0.1 to 1 | 10 to 20 | CNCC(O)COc1cccc(-c2nc(N3CCOCC3)cc(N(C3CCOCC3)C3CC3)n2)c1 (stereo not shown) [Example 601-1a]
0.1 to 1 | ≥ 20 | CCS(=O)(=O)N1CCN(c2nc(-c3cccc(OCC(O)CNC)c3)nc(NC3CCOCC3)c2C)CC1 (stereo not shown) [Example 668-1a]
0.1 to 1 | 10 to 20 | CNCC(O)COc1cccc(-c2nc(N[C@@H]3CC[C@@H](O)C3)cc(N(C)C3CCOCC3)n2)c1 (stereo partly shown) [Example 600-1a]
0.1 to 1 | 10 to 20 | CNCC(O)COc1cccc(-c2nc(NC3COC3)cc(-c3c(C)noc3C)n2)c1 (stereo not shown) [Example 22-1a]
0.1 to 1 | 10 to 20 | CNCC(O)COc1cccc(-c2nc(-c3c(C)noc3C)c(C)c(N3CCC[C@@H](N(C)C(=O)OC)C3)n2)c1 (stereo partly shown) [Example 180-1a]
0.1 to 1 | 5 to 10 | CNCC(O)COc1cccc(-c2nc(N[C@@H]3CCOC3)c(C)c(-c3ccnc(OCCOC)c3)n2)c1 (stereo partly shown) [Example 406-1a]
0.1 to 1 | ≥ 20 | CCN1CCN(c2nc(-c3cccc(OCC(O)CNC)c3)nc(NC3CCOCC3)c2C)CC1 (stereo not shown) [Example 641-1a]

The next lines start with the compound.

Structure (SMILES) | IC50 [1] [µM] | IC50 [2] [µM]
CNCC(O)COc1cccc(-c2nc(NC3CCOCC3)cc(-c3ccc(S(C)(=O)=O)cc3)n2)c1 (stereo not shown) [Example 656-1a] | 0.1 to 1 | ≥ 20
CNCC(O)COc1cccc(-c2nc(N[C@@H]3CCOC3)c(C)c(-c3cnn(CC(F)(F)F)c3)n2)c1 (stereo partly shown) [Example 414-1a] | 0.1 to 1 | 10 to 20
CNCC(O)COc1cccc(-c2nc(NC3CCOC3)c(C)c(N3CCNC(C(F)(F)F)C3)n2)c1 (stereo not shown) [Example 419-1a] | 0.1 to 1 | 10 to 20
CNCC(O)COc1cccc(-c2nc(N[C@@H]3CC[C@@H](O)C3)c(C)c(N3CCOCC3)n2)c1 (stereo partly shown) [Example 679-1a] | 1 to 3 | ≥ 20
CNCC(O)COc1cccc(-c2nc(NC3CCOCC3)c(C)c(N3CCNC(C)C3)n2)c1 (stereo not shown) [Example 645-1a] | 1 to 3 | ≥ 20
CNCC(O)COc1cccc(-c2nc(-c3c(C)noc3C)c(C)c(N3CCO[C@H](CN(C)C(=O)N(C)C)C3)n2)c1 (stereo partly shown) [Example 128-1a] | 0.1 to 1 | 5 to 10
CNCC(O)COc1cccc(-c2nc(NC3CCOCC3)c(CO)c(-c3c(C)noc3C)n2)c1 (stereo not shown) [Example 213-1a] | 0.1 to 1 | 10 to 20
CNCC(O)COc1cccc(-c2nc(NC3CCOCC3)cc(C3CC3)n2)c1 (stereo not shown) [Example 646-1a] | 0.1 to 1 | ≥ 20
CNCC(O)COc1cccc(-c2nc(NC3CCOC3)c(C)c(N3CC[C@H](S(C)(=O)=O)C3)n2)c1 (stereo partly shown) [Example 431-1a] | 0.1 to 1 | 10 to 20
CNCC(O)COc1cccc(-c2nc(N3CCCC4(CCOCC4)C3)cc(N(C)C3CCOCC3)n2)c1 (stereo not shown) [Example 494-1a] | 0.1 to 1 | < 5
CNCC(O)COc1cccc(-c2nc(N[C@@H]3CCOC3)c(C)c(-c3ccnc(N4CCC4)c3)n2)c1 (stereo partly shown) [Example 407-1a] | 0.1 to 1 | 10 to 20
CNCC(O)COc1cccc(-c2nc(N[C@@H]3CCOC3)c(C)c(C(=O)NCC3CCOCC3)n2)c1 (stereo partly shown) [Example 346-1a] | 0.1 to 1 | 10 to 20
CNCC(O)COc1ccc(C#N)c(-c2nc(NC3CCN(C(=O)OC)CC3)c(C)c(-c3c(C)noc3C)n2)c1 (stereo not shown) [Example 165-3] | 0.1 to 1 | ≥ 20
CNCC(O)COc1cccc(-c2nc(N3CCN(C(C)=O)[C@@H](C)C3)c(C)c(N(C)[C@@H]3CCOC3)n2)c1 (stereo partly shown) [Example 410-1a] | 0.1 to 1 | 5 to 10
CNCC(O)COc1cc(Cl)cc(-c2nc(N[C@@H]3CCOC3)c(C)c(C(=O)N(C)CC3CCOCC3)n2)c1 (stereo partly shown) [Example 353-1a] | 0.1 to 1 | 10 to 20
CNCC(O)COc1cc(-c2nc(NC3CCOCC3)c(C)c(-c3c(C)noc3C)n2)ccc1F (stereo not shown) [Example 52-3] | 0.1 to 1 | ≥ 20
CNCC(O)COc1cccc(-c2nc(C3CCN(S(C)(=O)=O)CC3)cc(N(C)C3CCOCC3)n2)c1 (stereo not shown) [Example 527-1a] | 0.1 to 1 | 5 to 10
CNCC(O)COc1cccc(-c2nc(N[C@@H]3CCOC3)c(C)c(N(CCC#N)C3CC3)n2)c1 (stereo partly shown) [Example 426-1a] | 0.1 to 1 | 10 to 20
CNCC(O)COc1cccc(-c2nc(O)c(C)c(-c3c(C)noc3C)n2)c1 (stereo not shown) [Example 73-1a] | 0.1 to 1 | 10 to 20
CNC[C@@H](O)COc1ccc(Cl)c(-c2nc(-c3c(C)noc3C)c(C)c(C3(C)CC3)n2)c1 [Example 262-3] | 0.1 to 1 | ≥ 20
CNCC(O)COc1cccc(-c2nc(N(C)c3cnc(OC)nc3)cc(N(C)C3CCOCC3)n2)c1 (stereo not shown) [Example 532-1a] | 0.1 to 1 | 5 to 10
CNCC(O)COc1cccc(-c2nc(N[C@@H]3CCOC3)c(C)c(N3CCC(O)CC3)n2)c1 (stereo partly shown) [Example 361-1a] | 0.1 to 1 | 10 to 20
CNCC(O)COc1cccc(-c2nc(N[C@@H]3CCOC3)c(C)c(-c3cccnc3N)n2)c1 (stereo partly shown) [Example 416-1a] | 3 to 10 | 10 to 20
CNCC(O)COc1cccc(-c2nc(NC3CCOC3)c(C)c(N3CCCC4(CCOCC4)C3)n2)c1 (stereo not shown) [Example 401-1a] | 0.1 to 1 | 10 to 20
